Test results published in patent US20180339963A1, “ANTICONVULSANT CARBAMATE DERIVATIVES” (Yissum Research Development Company of the Hebrew …, priority 2017, published 2018).
Where two headings read alike, the source gives them in different places. Marks after values point to notes of the source that are not given here.

Experiments:
SWV mice = test: Teratogenicity in the SWV mouse model; type: in vivo; conditions: for No. of fetuses with NTDs / No. of implants / No. of live fetuses / No. of resorptions / Fetal weight mean ± SD: day 8.5 of gestation; for Fetal weight mean ± SD: in g (unit assumed); for No. of live fetuses, figure in parentheses / No. of resorptions, figure in parentheses: share of implants; for No. of fetuses with NTDs, figure in parentheses: share of live fetuses
Experimental: The teratogenic properties of the newly designed compounds (1-10) were evaluated in the highly inbred SWV mice strain known for its high susceptibility to VPA-induced neural tube defects (NTDs). Two month old nulligravid females, were mated overnight with males and examined for the presence of vaginal plugs the following morning, and the onset of gestation was considered to be 10 p.m. of the previous night, the midpoint of the dark cycle. At day 8.5 of gestation, each dam received a single i.p. injection of the test compounds in an equimolar dose of 0.9 or 1.8 mmol/kg and the control dams were injected with vehicle (25% water solution of Cremophore EL, Fluka Biochemica Germany). The volume of injection was 10 μL/g of body weight. […] At gestation day […], the dams were euthanized by carbon dioxide asphyxiation followed by cervical dislocation. After the opening the uterus, the location of all viable fetuses and resorption sites were recorded, and the fetuses were examined for the presence of exencephaly or other gross congenital abnormalities. The teratogenicity data (implantations, resorptions and NTDs) were evaluated for significant differences between the control and treated groups by analyzing the contingency table with Fisher's exact test. Statistical analysis was conducted using GraphPad InStat (version 3.06; GraphPad Software, San Diego, Calif., USA), and the results of all tests were considered to be statistically significant when the p-value was less than 0.05

hCA IV = target: T1, hCA IV (Homo sapiens, UniProt P22748); test: Stopped flow CO2 hydrase assay, hCA IV; type: biochemical; conditions: mean from 3 assays, read-out: K1, hCA IV
T1 construct: made in house
Experimental: (§1) An Applied Photophysics stopped-flow instrument has been used for assaying the CA catalysed CO2 hydration activity. Phenol red (at a concentration of 0.2 mM) has been used as indicator, working at the absorbance maximum of 557 nm, with 20 mM Hepes (pH 7.5) as buffer, and 20 mM Na2SO4 (for maintaining constant the ionic strength), following the initial rates of the CA-catalyzed CO2 hydration reaction for a period of 10-100 s. The CO2 concentrations ranged from 1.7 to 17 mM for the determination of the kinetic parameters and inhibition constants. […] The uncatalyzed rates were determined in the same manner and subtracted from the total observed rates. Stock solutions of inhibitor (0.1 mM) were prepared in distilled-deionized water and dilutions up to 0.01 nM were done thereafter with the assay buffer. […] The inhibition constants were obtained by non-linear least-squares methods using PRISM 3 and the Cheng-Prusoff equation, as reported earlier and represent the mean from at least three different determinations. All CA isofoms were recombinant ones obtained in-house.

hCA II = target: T2, hCA II (Homo sapiens, UniProt P00918); test: Stopped flow CO2 hydrase assay, hCA II; type: biochemical; conditions: mean from 3 assays, read-out: K1, hCA II
T2 construct: made in house
Experimental: as §1

[1] = test system: maximal electroshock seizure (MES); test: Maximal electroshock seizure (MES) test in mice; conditions: for responders at 30 mg/kg / responders at 100 mg/kg / responders at 300 mg/kg: read-out: MES, number of mice protected/number of mice tested
[2] = test system: pentylenetetrazol-induced seizure (scMet); test: Subcutaneous metrazol seizure test (scMet) in mice; conditions: Mus musculus, ip, read-out: scMet-ED50
hCA VII = target: T3, hCA VII (Homo sapiens, UniProt P43166); test: Stopped flow CO2 hydrase assay, hCA VII; type: biochemical; conditions: mean from 3 assays, read-out: K1, hCA VII
T3 construct: made in house
Experimental: as §1

hCA I = target: T4, hCA I (Homo sapiens, UniProt P00915); test: Stopped flow CO2 hydrase assay, hCA I; type: biochemical; conditions: mean from 3 assays, read-out: K1, hCAI
T4 construct: made in house
Experimental: as §1

[3] = test system: maximal electroshock seizure (MES); test: Maximal electroshock seizure (MES) test in rats; conditions: Rattus norvegicus, po, read-out: MES-ED50, rats, p.o.
in vivo = conditions: male, CF no. 1 albino, mouse, ip
mice = test: Neurotoxicity (minimal motor impairment, rotarod) in mice; conditions: mice i.p.
[4] = test system: pentylenetetrazol-induced seizure (scMet); test: Subcutaneous metrazol seizure test (scMet) in rats; conditions: rats, p.o.
6 Hz psychomotor seizure = 6 Hz psychomotor seizure test in mice; conditions: for responders at 30 mg/kg / responders at 100 mg/kg / responders at 300 mg/kg: read-out: 6 Hz, number of mice protected/number of mice tested

T3 sequence (P43166 whole entry): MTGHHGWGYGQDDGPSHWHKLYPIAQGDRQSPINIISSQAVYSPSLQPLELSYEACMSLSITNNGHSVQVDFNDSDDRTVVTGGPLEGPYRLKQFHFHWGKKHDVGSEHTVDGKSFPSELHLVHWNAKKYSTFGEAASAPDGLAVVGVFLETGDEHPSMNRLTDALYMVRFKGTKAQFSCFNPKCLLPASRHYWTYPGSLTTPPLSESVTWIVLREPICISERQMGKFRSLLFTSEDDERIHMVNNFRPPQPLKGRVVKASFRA
T4 sequence (P00915 whole entry): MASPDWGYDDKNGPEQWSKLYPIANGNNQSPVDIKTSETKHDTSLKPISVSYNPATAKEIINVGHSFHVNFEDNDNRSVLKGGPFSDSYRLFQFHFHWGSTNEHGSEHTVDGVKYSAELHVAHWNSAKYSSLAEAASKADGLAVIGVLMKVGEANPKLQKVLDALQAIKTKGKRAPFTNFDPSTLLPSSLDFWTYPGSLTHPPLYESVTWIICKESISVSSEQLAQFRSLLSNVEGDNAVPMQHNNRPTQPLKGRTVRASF
T1 sequence (P22748 19-284): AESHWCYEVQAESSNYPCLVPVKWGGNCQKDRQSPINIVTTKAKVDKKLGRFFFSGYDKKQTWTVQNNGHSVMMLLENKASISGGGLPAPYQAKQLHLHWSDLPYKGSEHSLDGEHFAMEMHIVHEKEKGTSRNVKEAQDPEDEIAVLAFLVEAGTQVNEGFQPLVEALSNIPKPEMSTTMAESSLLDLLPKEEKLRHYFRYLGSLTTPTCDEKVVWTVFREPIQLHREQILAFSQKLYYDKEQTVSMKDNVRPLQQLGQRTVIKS

CCCC(COC(=O)Nc1ccc(S(N)(=O)=O)cc1)C(C)CC (stereo not drawn) [Compound 1, 3-methyl-2-propylpentyl (4-sulfamoylphenyl)carbamate]
induction of neural tube defects relative to anticonvulsant effective dose (in words) (SWV mice): induced neural tube defects only at doses markedly exceeding their effective dose
No. of fetuses with NTDs (SWV mice; single i.p. 0.9 mmol/kg): 1
No. of implants (SWV mice; single i.p. 0.9 mmol/kg): 126
No. of live fetuses (SWV mice; single i.p. 0.9 mmol/kg): 94
No. of resorptions (SWV mice; single i.p. 0.9 mmol/kg): 32
Fetal weight mean ± SD (SWV mice; single i.p. 0.9 mmol/kg): 0.88 ± 0.03
No. of live fetuses, figure in parentheses (SWV mice; single i.p. 0.9 mmol/kg): 74.6%
No. of resorptions, figure in parentheses (SWV mice; single i.p. 0.9 mmol/kg): 25.4%
No. of fetuses with NTDs, figure in parentheses (SWV mice; single i.p. 0.9 mmol/kg): (1.1)
No. of fetuses with NTDs (SWV mice; single i.p. 1.8 mmol/kg): 7
No. of implants (SWV mice; single i.p. 1.8 mmol/kg): 109
No. of live fetuses (SWV mice; single i.p. 1.8 mmol/kg): 50
No. of resorptions (SWV mice; single i.p. 1.8 mmol/kg): 59
Fetal weight mean ± SD (SWV mice; single i.p. 1.8 mmol/kg): 0.88 ± 0.06
No. of live fetuses, figure in parentheses (SWV mice; single i.p. 1.8 mmol/kg): 45.9%
No. of resorptions, figure in parentheses (SWV mice; single i.p. 1.8 mmol/kg): 54.1%
No. of fetuses with NTDs, figure in parentheses (SWV mice; single i.p. 1.8 mmol/kg): (14.0)*
Ki (hCA IV): > 10000 nM
Ki (hCA II): 5.7 nM
responders at 30 mg/kg ([1]; Mus musculus, ip, 0.5 h): 0%
responders at 100 mg/kg ([1]; Mus musculus, ip, 0.5 h): 0%
responders at 300 mg/kg ([1]; Mus musculus, ip, 0.5 h): 0%
responders at 30 mg/kg ([1]; Mus musculus, ip, 2 h): 0%
responders at 100 mg/kg ([1]; Mus musculus, ip, 2 h): 75%
responders at 300 mg/kg ([1]; Mus musculus, ip, 2 h): 100%
ED50 ([1]; Mus musculus, ip, read-out: MES-ED50, mice, i.p.): 136 mg/kg
MES-ED50 ([1]; mice, i.p.): 236 mg/kg
ED50 [2]: > 300 mg/kg
melting point: 151 to 152 °C
Ki (hCA VII): 865 nM
Ki (hCA I): 89 nM
ED50 [3]: 36 mg/kg
TD50 (in vivo): > 500 mg/kg
Tox (motor impairment or sedation), number of animals affected/number of animals tested (mice; 30 mg/kg, 0.5 h): 0/8
Tox (motor impairment or sedation), number of animals affected/number of animals tested (mice; 30 mg/kg, 2.0 h): 0/8
Tox (motor impairment or sedation), number of animals affected/number of animals tested (mice; 100 mg/kg, 0.5 h): 0/8
Tox (motor impairment or sedation), number of animals affected/number of animals tested (mice; 100 mg/kg, 2.0 h): 0/8
Tox (motor impairment or sedation), number of animals affected/number of animals tested (mice; 300 mg/kg, 0.5 h): 0/8
Tox (motor impairment or sedation), number of animals affected/number of animals tested (mice; 300 mg/kg, 2.0 h): 0/8
scMet ED50 [4]: inactive
responders at 30 mg/kg (6 Hz psychomotor seizure; Mus musculus, ip, 0.5 h): 25%
responders at 100 mg/kg (6 Hz psychomotor seizure; Mus musculus, ip, 0.5 h): 25%
responders at 300 mg/kg (6 Hz psychomotor seizure; Mus musculus, ip, 0.5 h): 0%
responders at 30 mg/kg (6 Hz psychomotor seizure; Mus musculus, ip, 2 h): 0%
responders at 100 mg/kg (6 Hz psychomotor seizure; Mus musculus, ip, 2 h): 25%
responders at 300 mg/kg (6 Hz psychomotor seizure; Mus musculus, ip, 2 h): 75%
ED50 (6 Hz psychomotor seizure; Mus musculus, ip, read-out: 6 Hz-ED50, mice, i.p., 32 mA): 75 mg/kg
6 Hz-ED50 (6 Hz psychomotor seizure; mice, i.p., 32 mA): 74 mg/kg
